# Assay results reported in patent US20250289786A1, “CHLORINATED MONOCARBONYL CURCUMIN COMPOUNDS, PREPARATION METHOD, AND APPLICATION” (Southwest Medical University, priority 2024, published 2025).
# Key:
# BV2 cells = assay: NO release in LPS-induced BV2 cell stress; format: cell-based; conditions: 1 μg/mL LPS; for NO release versus model group: 24 h, in words
# Excerpt: When the body is in a long-term stress and stress state, a large number of oxidizing substances and inflammatory factors accumulate in the body, causing depression and inducing depression-like symptoms. LPS is a pro-inflammatory substance, which can induce the increase of inflammatory factors, the accumulation of reactive oxygen species ROS and the release of NO in BV2 cells. The anti-inflammatory and antioxidant effects of drugs can be evaluated by establishing an LPS stress model.
# NO detection: When BV2 cells grew to the logarithmic growth phase, they were inoculated in a 6-well plate at 1×10^6 cells/well and cultured for 24 h. Then the original medium was replaced with CAK06 fresh DMEM high glucose medium containing high (10 μM), medium (5 μM), and low (1 μM) concentrations, and three duplicate wells were set up in each group. After the cells were treated with compound CAK06 for 12 h, the supernatant of the culture medium was centrifuged and stained according to the instructions of the NO detection kit, and the absorbance was detected at a wavelength of 540 nm.
# [1] = ABTS free radical capture ability; format: biochemical; conditions: 20 min reaction in the dark
# Method: 66.2 mg of K2S2O8 was weighed and placed in a 100 mL volumetric flask, pure water was added to the scale line to prepare a 2.45 mmol/L K2S2O8 solution. 192 mg of ABTS was accurately weighed and placed in a 25 mL volumetric flask, and the newly prepared K2S2O8 solution was added for dissolving and constant volume dilution, after standing in the dark for 20 h, the ABTS mother liquor was obtained. Before use, to make the measured value more accurate, the ABTS mother liquor needs to be diluted with a PBS solution of pH7.4 until the absorbance range of the ABTS working solution at 734 nm is 0.70±0.02.
# Drug concentration screening: To avoid the complete removal of free radicals by excessive drug concentration and the inability to compare the ability to capture ABTS free radicals, a preliminary screening of drug concentration is required before the formal test. A gradient concentration of compound solution was prepared, and a gradient concentration of Vit C solution was prepared as a positive control. A total of 450 μL of ABTS working solution was accurately absorbed into a 1.5 mL EP tube, and 150 μL of the gradient solution of each group of drugs was added, after 20 min of reaction in the dark, 150 μL of the reaction solution was taken and placed in a 96-well plate, the absorbance was measured by a microplate reader. Three duplicate wells were set for each concentration, and the drug concentration with absorbance between 0.2-0.7 was selected for subsequent determination.
# Determination operation: After the drug concentration screening was completed, 7 concentration gradient groups were set within this concentration range. A total of 450 μL of ABTS working solution was accurately absorbed into a 1.5 mL EP tube, and 150 μL of the gradient solution of each group of drugs was added. After 20 min of reaction in the dark, 150 μL of the reaction solution was taken and placed in a 96-well plate, the absorbance was measured by a microplate reader. Three duplicate wells were set for each concentration, the positive control group was a gradient solution of Vit C, and the blank control group was an equal volume of anhydrous ethanol.
# [2] = tested on: CUMS depression model mice; assay: Forced swimming test in CUMS depression model mice; format: in vivo, C57BL/6J mice; conditions: for forced swimming test, depressive symptoms / immobility time: 14th day, in words; for immobility time in the forced swimming test: 28 days
# Excerpt: After one week of adaptive feeding, the newly purchased mice were divided into a blank group and CUMS model group. The mice in the blank group were not subjected to behavioral intervention and were fed normally. Mice in the model group were given 1-2 unpredictable behavioral stimuli every day. […] When the same stimulation is continuous, the stimulation method is changed to ensure that the same stimulation is not continuous, and the model construction period is 42 days.
smiles,measurement,setting,value
"COc1cc(/C=C2\CNC/C(=C\c3cc(Cl)c(O)c(OC)c3)C2=O)cc(Cl)c1O [CAK06, 3,5-bis ((E)-3-chloro-4-hydroxy-5-methoxybenzylidene) piperidin-4-one]",absorbance (NO release),"BV2 cells; 1 μM (low), 12 h, 540 nm, model 0.153, blank 0.080",0.145
same,NO release versus model group,BV2 cells; 1 μM (low),no significant difference
same,NO release versus model group,BV2 cells; 5 μM (medium),significantly improved
same,NO release versus model group,BV2 cells; 10 μM (high),significantly improved
same,IC50 values of ABTS captured,[1],44.95 µg/mL
same,"forced swimming test, depressive symptoms / immobility time",[2]; 10 mg/kg oral once a day,significant reduction in immobility time
same,immobility time in the forced swimming test,[2]; 10 mg/kg oral once a day,114.86 ± 84.07 s
same,"forced swimming test, depressive symptoms / immobility time",[2]; 20 mg/kg oral once a day,stronger antidepressant effect
same,immobility time in the forced swimming test,[2]; 20 mg/kg oral once a day,54.44 ± 53.38 s
